Assays:
[1] = test system: patients with pulmonary arterial hypertension; test: Phase 4 open-label 16-week study: safety and tolerability, prostanoid-related adverse events; type: in vivo, human; details: for most bothersome AE: during the phase of the labelled form; for participants who received acetaminophen for prostacyclin-related headache / participants who received loperamide for prostacyclin-related diarrhea / participants who received ondansetron for prostacyclin-related nausea/vomiting: per-protocol population (n=29), while on the labelled form
Experimental: Safety and tolerability were assessed at each scheduled visit and in between visits as needed throughout the duration of the study. Tolerability measures of interest included incidence of all adverse events (AEs) and prostanoid-related AEs including headache, diarrhea, nausea, vomiting, flushing, jaw pain and extremity pain. […] Prostanoid-related events captured by the survey were only recorded if the event was unusual with respect to intensity, frequency, or duration compared to symptoms in the patient's medical history. Patient compliance with taking oral treprostinil was assessed by performing study drug accountability at each scheduled study visit. The primary endpoint and all efficacy endpoints were analyzed using the per-protocol population, which included all patients without major protocol deviations unless otherwise specified. The exact (Clopper-Pearson) 95% confidence interval was calculated for the primary endpoint. […] For continuous variables, descriptive statistics are reported as median (interquartile range, IQR or range) or mean (±standard deviation, SD). For categorical variables, descriptive statistics include frequency and percentage of patients in each category. Changes from baseline to Week 16 for continuous variables were analyzed using Wilcoxon signed rank test. The change in FC from baseline to Week 16 was analyzed using McNemar's test. The p-values from these tests were derived for descriptive purposes and not part of a formal hypothesis testing framework.

[2] = test system: patients with pulmonary arterial hypertension; test: Phase 4 open-label 16-week study: clinical parameters, risk stratification, patient-reported outcomes; type: in vivo, human
Source text: The secondary endpoints of this study included measurements in: changes in prostanoid adverse events (AEs), echocardiograms, change in 6-minute walk distance (6MWD), change in Borg dyspnea score, change in World Health Organization (WHO) functional class (FC), change in serum N-terminal pro-brain natriuretic peptide (NT-proBNP) levels, impact of pulmonary hypertension on a person's life (health-related quality of life), and treatment satisfaction. Specifically, this study sought to measure the percentage of subjects that improved in each of the following individual four clinical parameters at Week 16 (6MWD, NT-proBNP, WHO FC, right atrial area) to a lower risk stratum, as defined by the 2015 ESC/ERS guidelines (Gailè et al., DOI: 10.1183/13993003.01032-2015), compared to baseline measurements. An additional endpoint was determining the percentage of subjects that meet each of the following four individual clinical parameters at Week 16 in the low risk category, as defined by 2015 ESC/ERS guidelines: 6MWD>440 meters, […].
(§1) Based on the 2015 ESC/ERS Guidelines, specific hemodynamic inclusion criteria included a mean pulmonary arterial pressure ≥25 mmHg, pulmonary artery wedge pressure or left ventricular end-diastolic pressure ≤15 mmHg, and pulmonary vascular resistance >3 Wood units, in the absence of unrepaired congenital heart disease. Other key inclusion criteria were World Health Organization functional class (FC) II or III, 6-minute walk distance (6MWD)≥250 m, and a REVEAL 2.0 risk score ≤9 (Benza et al. 2021, DOI: https://doi.org/10.1016/j.chest.2020.08.2069). Patients could be receiving up to two oral PAH background therapies if taken at a stable dose for ≥30 days prior to baseline. As this study focused on the addition of a new therapy rather than the replacement of one therapy by another therapy, participants were eligible regardless of the number of pulmonary arterial hypertension background therapies (0, 1, or 2) they were receiving at baseline. […] Baseline assessments were collected up to 14 days prior to initiation of parenteral treprostinil, and included hemodynamics via echocardiogram and RHC, FC, N-terminal-pro brain natriuretic peptide (NT-proBNP), 6MWD, and medication history. Of note, historical RHC data could be used for baseline assessments if performed up to 180 days prior to initiating parenteral treprostinil. Echocardiograms were uploaded and stored in a central repository and evaluated by an independent central reader in accordance with the American Society of Echocardiography Guidelines (Bossone et al., DOI: 10.1016/j.echo.2012.10.009).
(§2) Once patients reached at least 20 ng/kg/min and were deemed suitable for transition based on physician assessment, they were transitioned at Week 2,4, or 8 to oral treprostinil via cross-titration in an inpatient or outpatient setting over 1-21 days. All participants still receiving parenteral treprostinil at Week 8 began transitioning to oral treprostinil regardless of their parenteral treprostinil dose unless deemed unsuitable for transition by their clinician. Before transition, 6MWD, WHO FC, NT-proBNP, and echocardiography parameters were assessed.
The primary endpoint was the percentage of patients who achieved an oral treprostinil TDD of at least 12 mg (0.171 mg/kg for patients <70 kg) at Week 16. Secondary endpoints included change from baseline to Week 16 in risk strata and clinical parameters, where baseline values were collected within 14 days prior to parenteral treprostinil initiation. Changes in risk strata for FC, NT-proBNP, 6MWD, and right atrial (RA) area were assessed using the 2015 ESC/ERS Guidelines, which categorizes risk for each determinant as low, intermediate, and high (Galiè et al., 2016). Clinical parameters of interest included FC, NT-proBNP, 6MWD, echocardiography parameters, REVEAL Lite 2 score (Benza et al., 2021), and Borg Dyspnea Score (Borg, 1982, DOI: https://doi.org/10.1249/00005768-198205000-00012). […]

[3] = test system: patients with pulmonary arterial hypertension; test: Phase 4 open-label 16-week study: echocardiography parameters; type: in vivo, human
Source text: as §1, §2
The primary endpoint was the percentage of patients who achieved an oral treprostinil TDD of at least 12 mg (0.171 mg/kg for patients <70 kg) at Week 16. Secondary endpoints included change from baseline to Week 16 in risk strata and clinical parameters, where baseline values were collected within 14 days prior to parenteral treprostinil initiation. Changes in risk strata for FC, NT-proBNP, 6MWD, and right atrial (RA) area were assessed using the 2015 ESC/ERS Guidelines, which categorizes risk for each determinant as low, intermediate, and high (Galiè et al., 2016). Clinical parameters of interest included FC, NT-proBNP, 6MWD, echocardiography parameters, REVEAL Lite 2 score (Benza et al., 2021), and Borg Dyspnea Score (Borg, 1982, DOI: https://doi.org/10.1249/00005768-198205000-00012). The REVEAL Lite 2 score includes clinical parameters to determine the risk status (low, intermediate, and high) for pulmonary arterial hypertension. The Borg Dyspnea Score ranges from 0 to 10, where 0 indicates no dyspnea and 10 indicates very, very heavy (almost maximal) dyspnea. Patient-reported outcomes were assessed using the emPHasis-10 quality of life questionnaire (Yorke et al., 2014, DOI: 10.1183/09031936.00127113) and the Pulmonary Arterial Hypertension Symptom Scale (PAHSS) (Matura et al., 2015, DOI: https://doi.org/10.1016/j.apnr.2014.04.001). The Treatment Satisfaction Questionnaire for Medication (TSQM) (Atkinson et al., 2004, DOI: https://doi.org/10.1186/1477-7525-2-12) was used to measure patient satisfaction with their medication over the last two to three weeks; higher scores indicate greater satisfaction. EmPHasis-10 scores can range from 0 to 50, where lower scores indicate better quality of life. […]

[4] = test system: Pulmonary hypertension patients; details: cited from earlier work
[5] = test system: Pulmonary arterial hypertension patients; details: cited from earlier work
[6] = Oral Treprostinil Phase (After Transition), n = 32
[7] = 2015 ESC/ERS risk strata, baseline to Week 16
[8] = Parenteral Treprostinil Phase (Before Transition), n = 35
[9] = transition visit, per-protocol population

## CCCCC[C@H](O)CC[C@@H]1[C@H]2Cc3cccc(OCC(=O)O)c3C[C@H]2C[C@H]1O [oral treprostinil, treprostinil]
[1]; [6]
  Diarrhea, patients with AE: 17 (53) n (%)
  Extremity pain, patients with AE: 11 (34) n (%)
  Flushing, patients with AE: 17 (53) n (%)
  Headache, patients with AE: 19 (59) n (%)
  Jaw pain, patients with AE: 16 (50) n (%)
  Nausea, patients with AE: 21 (66) n (%)
  Vomiting, patients with AE: 9 (28) n (%)
[1]; after transition from Remodulin to Orenitram
  adverse events headache, nausea, and vomiting: tended to improve
[1]; after transitioning from parenteral to oral treprostinil
  use of all concomitant medications: decreased
[1]; after transitioning to oral treprostinil, scale 1 bothers me a lot to 4 not at all bothersome
  bothersomeness of extremity pain, jaw pain and headache: not at all bothersome
[1]
  most bothersome AE: diarrhea and nausea
  participants who received acetaminophen for prostacyclin-related headache: 38%
  participants who received loperamide for prostacyclin-related diarrhea: 38%
  participants who received ondansetron for prostacyclin-related nausea/vomiting: 48%
[1]; three times daily
  tolerability: well tolerated
[2]; [7]
  percentage of patients who shifted to a lower risk stratum for 6MWD: 15%
  percentage of patients who shifted to a lower risk stratum for FC: 39%
  percentage of patients who shifted to a lower risk stratum for NT-proBNP: 39%
  percentage of patients who shifted to a lower risk stratum for RA area: 35%
[2]; Week 16
  6MWD, median: 395 m
  Borg Dyspnea Score, median: 3
  NT-proBNP, median: 212 ng/L
  REVEAL Lite 2 score, median: 3.5
[2]; Week 16 (0% at baseline)
  percentage of patients classified as FC I: 46%
[2]; baseline to Week 16
  Borg Dyspnea Score, median change from baseline: −1
  NT-proBNP, median change from baseline: -134 ng/L
  PAHSS domains: improvements were seen in most domains
  REVEAL Lite 2 score, median change from baseline: −1
  emPHasis- scores (quality of life), median change from baseline: −3
  patients improving in WHO FC: 68%
  patients worsening in WHO FC: one
[3]; Week 16
  Cardiac output, median: 4.9 L/min
  Heart rate, median: 76 bpm
  LV diameter, median: 44.9 mm
  LV eccentricity, diast., median: 1.0
  LV eccentricity, syst., median: 1.2
  LVOT integral, median: 19.5 cm
  LVOT, median: 19.6 mm
  PVAT, median: 89.9 ms
  RA area, median: 17.5 cm^2
  RV MPI, median: 0.4
  RV diameter, median: 24.8 mm
  RV wall strain, median: −19.2%
  RV/LV ratio, diastole, median: 0.6
  TAPSE, median: 19.9 mm
[3]; baseline to Week 16
  Cardiac output, median Change from Baseline: +0.5 L/min
  Heart rate, median Change from Baseline: +2 bpm
  LV diameter, median Change from Baseline: +3.5 mm
  LV eccentricity, diast., median Change from Baseline: 0.0
  LV eccentricity, syst., median Change from Baseline: +0.1
  LVOT integral, median Change from Baseline: +0.9 cm
  LVOT, median Change from Baseline: +0.4 mm
  PVAT, median Change from Baseline: +4.4 ms
  RA area, median Change from Baseline: −2.9 cm^2
  RV MPI, median Change from Baseline: −0.1
  RV diameter, median Change from Baseline: −2.6 mm
  RV wall strain, median Change from Baseline: +1.3%
  RV/LV ratio, diastole, median Change from Baseline: −0.1
  TAPSE, median Change from Baseline: +1.2 mm
[4]
  outcomes, including 6-minute walk distances, in patients who attained higher total daily doses: better outcomes

## CCCCC[C@H](O)CC[C@@H]1[C@H]2Cc3cccc(OCC(=O)O)c3C[C@H]2C[C@H]1O [parenteral treprostinil, treprostinil]
[1]; [8]
  Diarrhea, patients with AE: 18 (51) n (%)
  Extremity pain, patients with AE: 12 (34) n (%)
  Flushing, patients with AE: 10 (29) n (%)
  Headache, patients with AE: 28 (80) n (%)
  Jaw pain, patients with AE: 16 (46) n (%)
  Nausea, patients with AE: 24 (69) n (%)
  Vomiting, patients with AE: 13 (37) n (%)
[1]
  most bothersome AE: extremity pain, followed by jaw pain, headache, and diarrhea
  participants who received acetaminophen for prostacyclin-related headache: 55%
  participants who received loperamide for prostacyclin-related diarrhea: 34%
  participants who received ondansetron for prostacyclin-related nausea/vomiting: 69%
[1]; patients who initiated parenteral treprostinil
  patients reporting at least one treatment-emergent AE: All patients
[2]; transition visit, 29 patients
  patients who improved WHO FC: 76%
  patients who maintained WHO FC: 21%
  patients who worsened WHO FC: 3%
[2]; [9]
  6MWD, median (IQR): 377 (318, 453) m
  NT-proBNP, median (IQR): 186 (110, 724) ng/L
[3]; [9]
  TAPSE, median (IQR): 18.1 (14.8, 20.9) mm
  right atrial area, median (IQR): 19.3 (16.0, 26.7) cm2

## O=C(O)COC[C@H]1CC[C@H](COC(=O)N(c2ccccc2)c2ccc(Cl)cc2)CC1 [ralinepag]
[5]
  outcomes, including pulmonary vascular resistance and 6-minute walk distances, versus placebo: better outcomes

## CCCCC[C@H](O)CC[C@@H]1[C@H]2Cc3cccc(OCC(=O)O)c3C[C@H]2C[C@H]1O [treprostinil]
[1]; Transition Phase, n = 33
  Diarrhea, patients with AE: 17 (52) n (%)
  Extremity pain, patients with AE: 10 (30) n (%)
  Flushing, patients with AE: 10 (30) n (%)
  Headache, patients with AE: 19 (58) n (%)
  Jaw pain, patients with AE: 15 (46) n (%)
  Nausea, patients with AE: 21 (64) n (%)
  Vomiting, patients with AE: 5 (15) n (%)

From patent US20240139207A1, “METHODS FOR TREATING PULMONARY HYPERTENSION” (United Therapeutics Corporation, priority 2022, published 2024)
